In patent US20220233605A1, “METHODS OF MAKING AND USING LIVER CELLS” (University Health Network, priority 2019, published 2022):
Entries after “also recorded” stand apart in the source; their conditions may differ.

Key:
Type in all cases: cell-based, human
[1] = test system: CFTR expression; assay: Induction of CFTR expression in hepatoblasts differentiated to cholangiocytes in monolayer (co-culture with OP9-Jag1); conditions: hepatoblasts co-cultured with OP9-Jag1, monolayer, 6 days
Experimental: OP9 cells were maintained as described previously. 30 Gray irradiated OP9 cells were plated on 2.5% Matrigel coated wells (12 well plates) at a concentration of 200,000 cells per well in alpha-modified minimum essential media (a-MEM) supplemented with glutamine (2 mM) and 20% fetal bovine serum. To induce the cholangiocytes differentiation, day 27 hepatoblasts were dissociated using collagenase type I enzyme and then plated onto the irradiated OP9 cells. The plated cells were cultured in H21 DMEM/Ham's F12 (3:1) media supplemented with 0.1% BSA, 1% vol/vol B27 supplement, ascorbic acid, glutamine, MTG, HGF (20 ng/ml), and epidermal growth factor (EGF, 50 ng/ml) for 4 days. […] To promote the maturation of cholangiocytes that express primary cilia and 4D9, the cells were cultured with DMEM/F12 medium with 0.1% BSA, 1% vol/vol B27 supplement, ascorbic acid, glutamine, MTG, Noggin (50 ng/ml), ROCK inhibitor Y-27632 (5 μM) and Forskolin (FSK, 5 μM) for 12 days. The medium for all steps of cholangiocytes differentiation were changed every two days. The cells were maintained in an ambient O2 incubator.
It has previously been reported that it is possible to generate cholangiocytes that express a number of markers that are indicative of mature cells including the cystic fibrosis transmembrane conductance regulator (CFTR) gene, in which mutations cause cystic fibrosis. The development of mature cholangiocytes was dependent on growth of the cells as cysts in 3D semi-solid cultures consisting of Matrigel and collagen. While this approach yielded relatively mature cholangiocytes, the culture system was not amenable to cell expansion or high throughput screening (e.g., for drugs against cystic fibrosis and other biliary diseases). To improve the differentiation efficiency in monolayer cultures, a panel of cytokines and small molecules that are known to play a role in bile duct development were screened to identify those that would promote the upregulation of CFTR expression as an indication of maturation. Since Notch signaling is required for the production of cholangiocytes, hepatoblasts were cultured on either OP9-Jagl cells or Matrigel for 6 days as previously described. […] To further investigate the role of RA signaling, the effects of specific RA receptor agonists as well as a pan antagonist also were tested.

[2] = test system: hPSC-derived hepatocytes; assay: Zonation of hPSC-derived hepatocytes by Wnt manipulation (gene expression); conditions: added days 38 to 56 with T3
Experimental: Day 27 hepatoblasts were cultured in DMEM/F12 (50:50) with 0.2% BSA, 1% vol/vol ITS-X, ascorbic acid, glutamine, MTG, Dex (40 ng/ml), and OSM (5 ng/ml) for 6 days in monolayer. Day 33 hepatoblasts were dissociated using collagenase type 1 enzyme to make a small cluster of hepatoblasts. The dissociated small clusters were maintained in a low cluster culture dish and cultured in DMEM/F12 (50:50) medium supplemented with 0.2% BSA, 1% vol/vol ITS-X, ascorbic acid, 1% vol/vol chemically defined lipid mix medium (Thermo Fisher Scientific), 0.5% vol/vol B27, glutamine, MTG, Dex (40 ng/ml), and CHIR99021 (1 μM) for 6 days to promote the maturation in 3D aggregates. […]

[3] = test system: hPSC-derived hepatocytes; assay: Maturation of hPSC-derived hepatocytes: AFP expression by flow cytometry and qRT-PCR; conditions: added days 38 to 56, aggregates, 40 ng/ml dexamethasone
Experimental: For these studies, T3 was added to the cultures during the maturation step, from days 38 to 56. During this stage, the cells are cultured as aggregate in the presence of 40 ng/ml dexamethasone, as previously described.

[4] = test system: hPSC-derived cholangiocytes; assay: Flow cytometric screen for DHC5-4D9 reactive mature cholangiocytes in monolayer; conditions: added to cultures for 6 days, flow cytometry
Experimental: 30 Gray irradiated OP9 cells were plated on 2.5% Matrigel coated wells (12 well plates) at a concentration of 200,000 cells per well in alpha-modified minimum essential media (a-MEM) supplemented with glutamine (2 mM) and 20% fetal bovine serum. To induce the cholangiocytes differentiation, day 27 hepatoblasts were dissociated using collagenase type I enzyme and then plated onto the irradiated OP9 cells. The plated cells were cultured in H21 DMEM/Ham's F12 (3:1) media supplemented with 0.1% BSA, 1% vol/vol B27 supplement, ascorbic acid, glutamine, MTG, HGF (20 ng/ml), and epidermal growth factor (EGF, 50 ng/ml) for 4 days. […] To promote the maturation of cholangiocytes that express primary cilia and 4D9, the cells were cultured with DMEM/F12 medium with 0.1% BSA, 1% vol/vol B27 supplement, ascorbic acid, glutamine, MTG, Noggin (50 ng/ml), ROCK inhibitor Y-27632 (5 μM) and Forskolin (FSK, 5 μM) for 12 days. […]
To identify pathways that promote further maturation of the hPSC-derived cholangiocytes, a screening approach was used based on flow cytometric identification of cells that express the epitope recognized by the antibody DHCS-4D9, which stains mature bile ductal cells (cholangiocytes) in the adult liver. […] Following this maturation step, the cells were harvested and analyzed by flow cytometry for reactivity with DHC5-4D9.

CCCCCCCCc1ccc(-c2ccc(C(=O)O)cc2)cc1 [AC55649]
CFTR expression [1]: induced CFTR expression

CC1(C)CC=C(C#Cc2ccccc2)c2cc(/C=C/c3ccc(C(=O)O)cc3)ccc21 [BMS493]
CFTR expression [1]: inhibited the induction of CFTR expression

O=C(O)c1ccc2cc(-c3ccc(O)c(C45CC6CC(CC(C6)C4)C5)c3)ccc2c1 [CD437]
CFTR expression [1]: induced CFTR expression

Cc1c[nH]c(-c2cnc(NCCNc3ccc(C#N)cn3)nc2-c2ccc(Cl)cc2Cl)n1 [CHIR, 6-[[2-[[4-(2,4-Dichlorophenyl)-5-(5-methyl-1H-imidazol-2-yl)-2-pyrimidinyl]amino]ethyl]amino]-3-pyridinecarbonitrile]
zonal gene expression of hepatocytes [2]: expressed genes associated with Zone 3 hepatocytes

N[C@@H](Cc1cc(I)c(Oc2ccc(O)c(I)c2)c(I)c1)C(=O)O [T3, Triiodothyronine]
levels of AFP expression [3]: dramatic decrease in the levels of AFP expression; also recorded: significantly lower than the levels observed in cells treated with cAMP

Oc1nc(-c2ccc(C(F)(F)F)cc2)nc2c1CSCC2 [XAV]
zonal gene expression of hepatocytes [2]: expressed genes associated with Zone 1 hepatocytes

AM580
CFTR expression [1]: induced CFTR expression

B1: N: Noggin, inhibition of the BMP pathway (protein, UniProt Q13253 28-232, looked up)
Noggin: QHYLHIRPAPSDNLPLVDLIEHPDPIFDPKEKDLNETLLRSLLGGHYDPGFMATSPPEDRPGGGGGAAGGAEDLAELDQLLRQRPSGAMPSEIKGLEFSEGLAQGKKQRLSKKLRRKLQMWLWSQTFCPVLYAWNDLGSRFWPRYVKVGSCFSKRSCSVPEGMVCKPSKSVHLTVLRWRCQRRGGQRCGWIPIQYPIISECKCSC
development of DHC5-4D9 cells [4]: promoted the development of DHC5-4D9 cells
